Experimental data from US7947830B2, “Substituted propenyl piperazine derivatives as novel inhibitors of histone deacetylase” (Janssen Pharmaceutica N.V., priority 2004, dated 2011).
Like-named read-outs stand apart in the source and are kept apart here.

Key:
[1] = Metabolic stability with rat hepatocytes cell culture (C.5.b); assay type: in vitro ADME; settings: 5 μM
Source text: Metabolism of drugs means that a lipid-soluble xenobiotic or endobiotic compound is enzymatically transformed into (a) polar, water-soluble, and excretable metabolite(s). The major organ for drug metabolism is the liver. […] However, some metabolites may have enhanced activity or toxic effects. Thus drug metabolism may include both “detoxication” and “toxication” processes. One of the major enzyme systems that determine the organism's capability of dealing with drugs and chemicals is represented by the cytochrome P450 monooxygenases, which are NADPH dependent enzymes. Metabolic stability of compounds can be determined in vitro with the use of subcellular human tissue (see example C.5.a.). Here metabolic stability of the compounds is expressed as % of drug metabolised after 15 minutes incubation of these compounds with microsomes. Quantitation of the compounds was determined by LC-MS analysis. Metabolic stability of compounds can also be determined by calculating the half live of compounds in rat hepatocyte cells (see example C.5.b.). […]
Samples were prepared for LC-MS by addition of two volumes of DMSO. […] Of the resulting supernatant 50 μl was analysed by LC-MS. […]
Total injection volume of samples was 50 μL. […] The mass spectrometer was operated in positive ion mode in SIM adjusted to the mass of M+H with a scan width of 1 Da for quantification purposes. […]

[2] = molecular target: histone deacetylase (HeLa nuclear extracts); test: In vitro assay for inhibition of histone deacetylase (HDAC Fluorescent Activity Assay, Fluor de Lys); assay type: biochemical; settings: Fluor de Lys substrate
Source text: The in vitro assay for inhibition of histone deacetylase (see example C.1) measures the inhibition of HDAC enzymatic activity obtained with the compounds of formula (I).
The HDAC Fluorescent Activity Assay/Drug Discovery Kit of Biomol (cat.No: AK-500-0001) was used. The HDAC Fluorescent Activity Assay is based on the Fluor de Lys (Fluorogenic […] deAcetylase Lysyl) substrate and developer combination. The Fluor de Lys substrate, comprises an acetylated lysine side chain. Deacetylation of the substrate sensitizes the substrate so that, in the second step, treatment with the Fluor de Lys developer produces a fluorophore.
After 30 min, 1 volume of the developer was added. […] For each experiment, controls (containing HeLa nuclear extract and buffer), a blank incubation (containing buffer but no HeLa nuclear extract) and samples (containing compound dissolved in DMSO and further diluted in buffer and HeLa nuclear extract) were run in parallel. […] All sample were tested 4 times. In each test the blank value was substracted from both the control and the sample values. The control sample represented 100% of substrate deactylation. For each sample the fluorescence was expressed as a percentage of the mean value of the controls. […] Herein the effects of test compounds are expressed as pIC50 (the negative log value of the IC50-value) (see Table F-3).

[3] = system: A2780 ovarian carcinoma cells; test: Antiproliferative activity on A2780 cells (MTT); assay type: cell-based, human; settings: Homo sapiens, A2780, 96 h, four days of incubation, read-out: Cellular activity pIC50 C.2. (converted)
Procedure: Cellular activity of the compounds of formula (I) was determined on A2780 tumour cells using a […] assay for cell toxicity or survival (Mosmann Tim, Journal of Immunological Methods 65: 55-63, 1983)(see example C.2).
All compounds tested were dissolved in DMSO and further dilutions were made in culture medium. Final DMSO concentrations never exceeded 0.1% (v/v) in cell proliferation assays. Controls contained A2780 cells and DMSO without compound and blanks contained DMSO but no cells. MTT was dissolved at 5 mg/ml in PBS. A glycine buffer comprised of 0.1 M glycine and 0.1 M NaCl buffered to pH 10.5 with NaOH (1 N) was prepared (all reagents were from Merck).
The human A2780 ovarian carcinoma cells (a kind gift from Dr. T. C. Hamilton [Fox Chase Cancer Centre, Pennsylvania, USA]) were cultured in RPMI 1640 medium supplemented with 2 mM L-glutamine, 50 μg/ml gentamicin and 10% fetal calf serum.
Cells were routinely kept as monolayer cultures at 37° C. in a humidified 5% CO2 atmosphere. Cells were passaged once a week using a trypsin/EDTA solution at a split ratio of 1:40. All media and supplements were obtained from Life Technologies. Cells were free of mycoplasma contamination as determined using the Gen-Probe Mycoplasma Tissue Culture kit (supplier: BioMérieux).
Cells were seeded in NUNC™ 96-well culture plates (Supplier: Life Technologies) and allowed to adhere to the plastic overnight. Densities used for plating were 1500 cells per well in a total volume of 200 μl medium. After cell adhesion to the plates, medium was changed and drugs and/or solvents were added to a final volume of 200 μl. Following four days of incubation, medium was replaced by 200 μl fresh medium and cell density and viability was assessed using an MTT-based assay. To each well, 25 μl […] solution was added and the cells were further incubated for 2 hours at 37° C. The medium was then carefully aspirated and the blue MTT-formazan product was solubilized by addition of 25 μl glycine buffer followed by 100 μl of DMSO. […] Within an experiment, the results for each experimental condition are the mean of 3 replicate wells. For initial screening purposes, compounds were tested at a single fixed concentration of 10^−6 M. For active compounds, the experiments were repeated to establish full concentration-response curves. For each experiment, controls (containing no drug) and a blank incubation (containing no cells or drugs) were run in parallel. The blank value was subtracted from all control and sample values. For each sample, the mean value for cell growth (in absorbance units) was expressed as a percentage of the mean value for cell growth of the control. […] Herein the effects of test compounds are expressed as pIC50 (the negative log value of the IC50-value)(see Table F-3).

[4] = Kinetic solubility in aqueous media (nephelometer, C.3.a); assay type: physicochemical; settings: aqueous buffer, kinetic from dmso stock; score; phosphate citrate buffer pH 7.4, turbidity
Procedure: The solubility of a compound measures the ability of a compound to stay in solution. In a first method the ability of a compound to stay in aqueous solution upon dilution (see example C.3.a) is measured. DMSO-stock solutions are diluted with a single aqueous buffer solvent in 3 consecutive steps. For every dilution turbidity is measured with a nephelometer.
In the first dilution step, 10 μl of a concentrated stock-solution of the active compound, solubilized in DMSO (5 mM), was added to 100 μl phosphate citrate buffer pH 7.4 and mixed. In the second dilution step, an aliquot (20 μl) of the first dilution step was further dispensed in 100 μl phosphate citrate buffer pH 7.4 and mixed. Finally, in the third dilution step, a sample (20 μl) of the second dilution step was further diluted in 100 μl phosphate citrate buffer pH 7.4 and mixed. All dilutions were performed in 96-well plates. Immediately after the last dilution step the turbidity of the three consecutive dilution steps were measured with a nephelometer. Dilution was done in triplicate for each compound to exclude occasional errors. Based on the turbidity measurements a ranking is performed into 3 classes. Compounds with high solubility obtained a score of 3 and for this compounds the first dilution is clear. Compounds with medium solubility obtained a score of 2. For these compounds the first dilution is unclear and the second dilution is clear.

[5] = system: p21 promoter reporter A2780 tumour in nude mice; test: p21 promoter induction in vivo method, tumour fluorescence (C.6.c); settings: oral administration, daily during 6 days, 20-40 mpk
Procedure: Another method tests the capacity of compounds to induce p21 as the consequence of HDAC inhibition at the cellular level. […] The reporter gene is a fluorescent protein and the expression of the reporter gene is measured as the amount of fluorescent light emitted (see example C.6.b.). The last method is an in vivo method wherein mice are used for screening the pharmaceutical activity of a compound. The above described stably transformed tumour cells can be administered to mice in an amount sufficient to effect production of a tumour. After the tumour cells had sufficient time to form a tumour, a potentially active compound can be administered to the animals and the effect of said compound on the tumour cells is evaluated by measuring the expression of the reporter gene. Incubation with pharmaceutical active compounds will result in an increase of reporter gene expression compared to the control levels (see example C.6.c.)
A selected clone was injected subcutaneous (10^7 cells/200 μl) into the flank of nude mice and a calliper measurable tumour was obtained after 12 days. […] Tumours were evaluated for fluorescence by the in-house developed Automated Whole Body Imaging System (Fluorescent stereomicroscope type Olympus® SZX12 equipped with a GFP filter and coupled to a CCD camera type JAI® CV-M90 controlled by a software package based on the IMAQ Vision Software from National Instruments®). […]

[6] = not given; remark: listed apart in the source

| SMILES | in vitro half-live [1] | Enzymatic activity pIC50 C.1. [2] | IC50 [3] | solubility [4] | further results |
| --- | --- | --- | --- | --- | --- |
| COc1cc(N)c(Cl)cc1C(=O)NC1CCN(CCCOc2ccc(F)cc2)CC1OC (stereo not drawn) [Cisapride] |  |  |  |  | % metabolism (human, 15 min, 5 μM): 45% |
| CCCO [propanol] |  |  |  |  | % metabolism (after 15 min incubation with active microsomes, compound 5 μM): 25% |
| O=C(NO)c1cnc(N2CCN(C(/C=C/c3ccccc3)CO)CC2)nc1 (stereo not drawn) [Compound 1] |  | 8.2 | 12.6 nM | > 455 µM | tumour fluorescence ranked relative to R306465 [5]: better than R306465; melting point [6]: 187 °C |

Continued, in another order:

| in vitro half-live [1] | Enzymatic activity pIC50 C.1. [2] | IC50 [3] | solubility [4] | SMILES | further results |
| --- | --- | --- | --- | --- | --- |
| 8 min |  |  |  | O=C(NO)c1cnc(N2CCN(S(=O)(=O)c3ccc4ccccc4c3)CC2)nc1 [Compound R306465, reference compound] |  |
| 23 min | 8.2 | 31.6 nM | > 455 µM | O=C(NO)c1cnc(N2CCN(C(/C=C/c3ccc(Cl)cc3)CO)CC2)nc1 (stereo not drawn) [Compound 4] |  |
